The subject of the assay is pre-adipocyte cell line 3T3-L1. Description: Activity of the peptides on adipocytes: 3T3-L1 pre-adipocytes differentiated into mature adipocytes, Oil Red staining of lipid vacuoles, microscope observation. It is filed as cell-based. Conditions: mature adipocytes from 3T3-L1, treated with solution containing the peptide. How it is done: The number and the size of the lipid vacuoles present in the mature adipocytes are evaluated by microscope observation after specific staining with the “Oil Red” stain.
The pre-adipocyte cells 3T3-L1 are seeded in Labteks and maintained until 100% confluence in DMEM 10% SVF culture medium. The cells are treated with the peptide of sequence ID N° (5), representative of the family of peptides per the invention, placed in 1% solution à 1% starting with a solution of 50 ppm. Nontreated controls were prepared in parallel.
Once confluence is achieved, the cells are cultivated in the presence of differentiation inducers (IBMX, dexamethasone and insulin), so as to bring about the final differentiation into mature adipocytes. The differentiated adipocytes are further incubated for 3 hours with the peptide being tested in a concentration of 1%. Nontreated controls were prepared in parallel.
The adipocytes are then fixed for 10 minutes in a 4% formol and NaCl solution, after which the “Oil Red” stain solution (Sigma, O-0625) is applied for 15 minutes. The cells are then rinsed with warm water and mounted on slides, in hydrophilic medium (Aquatex). The observation is done under an optical microscope.

Ends that are not written are not given here.

Data on one substance can be found in US8318681B2, “Utilization of peptides as active ingredients for slimming” (ISP Investments Inc., priority 2006, dated 2012).

For the substance GLYDNLE [sequence ID N^o (5)], where the note is “versus nontreated controls (voluminous spherical shape)”, the “morphology of mature adipocytes” value was “less rounded”. In addition, under “versus nontreated controls, Oil Red stain”, the “content of intra-adipocyte lipid vesicles” value is “clearly diminished”.
